The results in this text go back to patent US6900200B2, “Tricyclic hydroxy carboxamides and derivatives thereof tocolytic oxytocin receptor antagonists” (Wyeth, priority 2001, dated 2005).

T1 sequence (P30518 whole entry): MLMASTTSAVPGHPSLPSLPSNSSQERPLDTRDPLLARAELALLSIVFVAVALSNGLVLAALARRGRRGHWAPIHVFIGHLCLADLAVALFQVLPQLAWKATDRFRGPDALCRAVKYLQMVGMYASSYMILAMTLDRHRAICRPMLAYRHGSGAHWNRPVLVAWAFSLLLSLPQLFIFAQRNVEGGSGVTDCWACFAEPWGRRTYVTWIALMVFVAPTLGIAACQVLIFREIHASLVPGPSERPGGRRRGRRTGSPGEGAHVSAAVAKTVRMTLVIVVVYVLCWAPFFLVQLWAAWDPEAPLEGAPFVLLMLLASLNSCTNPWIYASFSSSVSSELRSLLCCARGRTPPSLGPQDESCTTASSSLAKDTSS

The first experiment has as its target T1, human vasopressin V2 receptor subtype (Homo sapiens, UniProt P30518).
T1 construct: host or cells: CHO cells, pZeoSV vector
As to the kind of experiment: Vasopressin binding in CHO cell membranes expressing human vasopressin V2 subtype receptors ([3H]arginine vasopressin radioligand binding). The note with it: @ 100 nM. An excerpt:
Vasopressin Binding in Chinese Hamster Ovary Cell Membranes Expressing Human Vasopressin V2 Subtype Receptors
Chinese Hamster Ovary (CHO) cells stably transfected with the human V2 subtype receptors were obtained from M. Thibonnier, Case Western Reserve University School of Medicine, Cleveland, Ohio.
A. Passaging and Amplification of Cells
CHO cells transfected with the human vasopressin V2 subtype receptors obtained from M. Thibonnier (pZeoSV vector) are allowed to grow to confluency (approx. >90%) in T-150 flasks under sterile conditions, in a cell culture medium ofF-12 Nutrient Mixture (HAM) with L-glutamine (Gibco Cat. #11765-054) containing 15 mM HEPES (Gibco Cat. #15630-080), 1% antibiotic/antimycotic (add 5 mL 100×, Gibco Cat. #15240-062 per 500 mL F-12), 250 μg/mL Zeocin (add 1.25 mL of 100 mg/mL Invitrogen R-250-01 per 500 mL F-1 2) and 10% Fetal Bovine Serum (Qualified, heat inactivated, Gibco Cat. #16140-063). The medium is removed by aspiration and the cells washed with 10 mL of Hank's Balanced Salt solution (Gibco Cat. #14175-095). The salt solution is removed by aspiration and the cells trypsinized with 5 mL of trypsin-EDTA (0.05% trypsin, 0.53 mM EDTA-4Na, Gibco Cat. #25300-070) for 1 min. The trypsin is removed by aspiration and the cells dislodged by tapping. Cell Culture medium (e.g. 30 mL for 1:30 split) is immediately added and mixed well to inactivate trypsin. 1 mL of detached cells is added to new culture flasks containing fresh Cell Culture medium (e.g. into 25 mL per T-150 flask), and mixed gently. The cells are incubated at 37° C. in 5% CO2. The medium is changed at 3 to 4 day interval (or as appropriate). The cells grow to confluency (approx. >75%-95%) within 7-8 days. All steps are done under sterile conditions.
The cells are washed twice gently with Hank's Balanced Salt solution (e.g. use 10 mL per T-150 flask). The excess solution is removed and the cells bathed for 15-30 min. in an enzyme-free Cell Dissociation Buffer (e.g. use 8 mL Hank's Based, Gibco Cat. # 13150-016 per T-150 flask) until cells are loosened. The contents are transferred to centrifuge tubes (50 mL) kept in ice bath. All subsequent steps are done at 4° C. The tubes are centrifuged at 300×g for 15 min (1380 rpm on SORVAL, Model RT6000D, using the rotor for 50 mL tubes). The supernatant is discarded and the cells suspended in homogenizing buffer (10 mM Tris-HCl containing 0.25 M sucrose and 1 mM EDTA, pH 7.4) ensuring that the volume of the buffer is about ten times the volume of the cell pellet. The cells are pooled into a centrifuge tube (50 mL) and homogenized with Polytron at setting 6 for 10 sec. The homogenate is transferred into a Potter-Elvjehm homogenizer and homogenized with 3 strokes. The homogenate is centrifuged at 1500×g for 60 min at 4° C. (3100 rpm using SORVAL, model RT6000D, using the rotor for 50 mL tubes). The pellet is discarded. The supernatant is centrifuged at 100,000×g for 60 min. at 4° C. (Beckman L8-80M ultracentrifuge; spin at 37,500 rpm with rotor type 70 Ti for 50 mL tubes; 38,000 rpm with type 80Ti for 15 mL tubes; or 35,800 rpm with rotor type 45Ti). The supernantant is discarded and the pellet suspended in 3 to 4 mL of Tris buffer (50 mM TRIS—HCl, pH 7.4). The protein content is estimated by the Bradford or Lowry method. The volume of the membrane suspension is adjusted with the membrane buffer (50 mM Tris-HCl containing 0.1% BSA and 0.1 mM PMSF) to give 3.0 mg/mL (or as appropriate) of protein. The membranes are aliquoted and stored at −70. ° C.
C. Radioligand Binding Assay
In wells of a 96-well format microtiter plate, is added 90, 110 or 130 μL (to make up a final volume of 200 μL) of assay buffer containing 50 mM of Tris-HCl (pH 7.4), […], 1 mg % aprotinin, 1 mg % leupeptin, 2 mg % 1,10-phenanthroline, 10 mg % trypsin inhibitor, and 0.1 mM PMSF. The inhibitors are added on the day of the experiment. […]
`COc1cc(C(=O)N2Cc3ccc(C(=O)N4CCN(CCO)CC4)n3Cc3ccccc32)ccc1-c1ccccc1C` [Example 42, [4-(2-Hydroxyethyl)-1-piperazinyl]{10-[(2-methoxy-2′-methyl[1,1′-biphenyl]-4yl)carbonyl]-10,11-dihydro-5H-pyrrolo[2,1-c][1,4]benzodiazepin-3-yl}methanone] showed an inhibition at 0.1 µM of 27%. Consider `COc1cccc(-c2ccc(C(=O)N3Cc4ccc(C(=O)N5CCN(CCO)CC5)n4Cc4ccccc43)cc2OC)c1` [Example 50, {10-[(2,3′-Dimethoxy[1,1′-biphenyl]-4-yl)carbonyl]-10,11-dihydro-5H-pyrrolo[2,1-c][1,4]benzodiazepin-3-yl}[4-(2-hydroxyethyl)-1-piperazinyl]methanone], for which 0.1 µM produced 16% inhibition. In turn, `COc1ccccc1-c1ccc(C(=O)N2Cc3ccc(C(=O)N4CCN(CCO)CC4)n3Cc3ccccc32)cc1` [Example 47, [4-(2-Hydroxyethyl)-1-piperazinyl]{10-[(2′-methoxy[1,1′-biphenyl]-4-yl)carbonyl]-10,11-dihydro-5H-pyrrolo[2,1-c][1,4]benzodiazepin-3-yl}methanone] gave an inhibition at 0.1 µM of 16%.

Staying with this experiment, now noted: value printed in parentheses.
Take `Cc1cc(C(=O)N2Cc3ccc(C(=O)N4CCN(C[C@H](O)CO)CC4)n3Cc3ccccc32)ccc1-c1ccccc1C(F)(F)F` [Example 5, (2S)-3-{4-[(10-{[2-Methyl-2′-trifluoromethyl-[1,1′-biphenyl]-4-yl]carbonyl}-10,11-dihydro-5H-pyrrolo[2,1-c][1,4]benzodiazepin-3-yl)carbonyl]piperazin-1-yl}propane-1,2-diol]: the IC50 is 1190 nM. As to `Cc1cc(C(=O)N2Cc3ccc(C(=O)N4CCN(C[C@@H](O)CO)CC4)n3Cc3ccccc32)ccc1-c1ccccc1C(F)(F)F` [Example 6, (2R)-3-{4-[(10-{[2-Methyl-2′-trifluoromethyl-[1,1′-biphenyl]-4-yl]carbonyl}-10,11-dihydro-5H-pyrrolo[2,1-c][1,4]benzodiazepin-3-yl)carbonyl]piperazin-1-yl}propane-1,2-diol], the half-inhibitory concentration (IC50) came to 1390 nM. Turning to `COc1cc(-c2ccccc2C(F)(F)F)c(Cl)cc1C(=O)N1Cc2ccc(C(=O)N(C)C[C@H](O)[C@@H](O)[C@H](O)[C@H](O)CO)n2Cc2ccccc21` [Example 20, 10-{[6-Chloro-3-methoxy-2′-trifluoromethyl-[1,1′-biphenyl]-4-yl]carbonyl}-N-methyl-N-[(2S,3R,4R,5R)-2,3,4,5,6-pentahydroxyhexyl]-10,11-dihydro-5H-pyrrolo[2,1-c][1,4]benzodiazepine-3-carboxamide], the half-inhibitory concentration (IC50) is 227 nM.

In the case of `COc1cc(C(=O)N2Cc3ccc(C(=O)N(C)C[C@@H](O)[C@H](O)[C@H](O)[C@@H](O)CO)n3Cc3ccccc32)ccc1-c1ccccc1C(F)(F)F` (stereo in doubt) [Example 23, 10-{[2-Methoxy-2′-trifluoromethyl-[1,1′-biphenyl]-4-yl]carbonyl}-N-methyl-N-[(2R,3S,4R,5S)-2,3,4,5,6-pentahydroxyhexyl]-10,11-dihydro-5H-pyrrolo[2,1-c][1,4]benzodiazepine-3-carboxamide], the IC50 amounted to 451 nM. For the compound `COc1ccccc1-c1ccc(C(=O)N2Cc3ccc(C(=O)N(C)CC(O)CO)n3Cc3ccccc32)cc1C` (stereo not drawn) [Example 14, 10-[(2′-Methoxy-2-methyl-[1,1′-biphenyl]-4-yl)carbonyl]-10,11-dihydro-5H-pyrrolo[2,1-c][1,4]benzodiazepine-3-carboxylic acid (2,3-dihydroxy-propyl)-methyl-amide], the IC50 was determined as 205 nM. Take `Cc1cc(C(=O)N2Cc3ccc(C(=O)N(C)CC4COC(=O)O4)n3Cc3ccccc32)ccc1-c1ccccc1C(F)(F)F` (stereo not drawn) [Example 11, 10-[(2-Methyl-2′-trifluoromethyl-[1,1′-biphenyl]-4-yl)carbonyl]-10,11-dihydro-5H-pyrrolo[2,1-c][1,4]benzodiazepine-3-carboxylic acid methyl-[(2-oxo-[1,3]dioxolan-4-yl)methyl]-amide]: the IC50 turned out to be 356 nM.

A word on the inhibition: it is the share of the control response that was lost under treatment. The term IC50 denotes the point on the concentration scale where inhibition reaches its midpoint.
